What follows are compounds tested against T1, wild-type HIV-1 protease (Human immunodeficiency virus type 1 group M subtype B, UniProt P04585) (assay: Assay for Inhibition of Microbial Expressed HIV Protease). Details: Escherichia coli expressed wild-type HIV-1 protease, peptide substrate cleavage; mean of at least two independent experiments.
T1 construct: Escherichia coli expressed wild-type HIV-1 protease protein; made in house; host or cells: Escherichia coli
Type: biochemical
Procedure: Inhibition of Escherichia coli expressed wild-type HIV-1 protease protein was carried out with a peptide substrate [Val-Ser-Gln-Asn-Wnaphtyl)Ala-Pro-Ile-Val]. The inhibitor compound was preincubated with HIV-1 protease enzyme in assay buffer (50 mM sodium acetate, pH 5.5, 100 mM NaCl, and 0.1% BSA) for 30 minutes at room temperature. Peptide substrate was added to 400 μM in a total volume of 20 μL containing 20 pM HIV-1 protease (final) after which the reaction was incubated for 1 hour at 30° C. The reaction was quenched by the addition of formic acid and HIV protease inhibitor indinavir to 0.012% and 150 nM final concentrations, respectively. Product formation was determined after separation of product and substrate on a ZORBAX Eclipse XDB-C18 column (Aligent Technologies, Santa Clara, Calif., USA) connected to an API 4000™ mass spectrometer (AB Sciex, Pte. Ltd., Concord Ontario, Canada) with multiple reaction monitoring (transitions were 644.5/428.9 and 615.4/422.2 (M1/M3) for product and indinavir respectively). The extent of inhibition of the reaction was determined from the peak area of the products. Analysis of the products, independently synthesized, provided quantitation standards and confirmation of the product composition. […] Ic50's refer to the 50% inhibition of the cleavage of a peptide substrate by hiv protease.
Data shown in the table reflects the mean of at least two independent experiments.

With `COc1ccc(CN2C(=N)NC(c3ccccc3)(c3ccccc3)C2=O)cc1C(=O)N(C)Cc1ccc(F)cc1` [Example 78, N-(4-fluorobenzyl)-5-[(2-imino-5-oxo-4,4-diphenylimidazolidin-1-yl)methyl]-2-methoxy-N-methylbenzamide] as the compound, how does the IC50 read?
The IC50 was 53.6 nM.

Which IC50 does the source give for `CN(C)C(=O)c1cccc(CN2C(=N)NC(c3ccc(F)cc3)(c3cccc(Br)c3)C2=O)c1` (centres unmarked) [Example 53, 3-{[4-(3-bromophenyl)-4-(4-fluorophenyl)-2-imino-5-oxoimidazolidin-1-yl]methyl}-N,N-dimethylbenzamide] here?
Its IC50 is 48.6 nM.

For `C[C@H](c1ccc(Cl)cc1)N(C)C(=O)c1cccc(CN2C(=N)NC(c3ccc(F)cc3)(c3ccc(F)cc3)C2=O)c1` [Example 41, 3-{[4,4-bis(4-fluorophenyl)-2-imino-5-oxoimidazolidin-1-yl]methyl}-N-[(1R)-1-(4-chlorophenyl)ethyl]-N-methylbenzamide], which IC50 is on record?
Its IC50 is 26.5 nM.

Which IC50 does the source give for `CN(Cc1ccc(Cl)cc1)C(=O)c1cccc(CN2C(=N)NC(c3ccc(F)cc3)(c3cccc(C#N)c3)C2=O)c1` (centres unmarked) [Example 37, N-(4-chlorobenzyl)-3-{[4-(3-cyanophenyl)-4-(4-fluorophenyl)-2-imino-5-oxoimidazolidin-1-yl]methyl}-N-methylbenzamide] here?
The IC50 was 23.5 nM.

Which IC50 does the source give for `CN(Cc1ccccc1S(C)(=O)=O)C(=O)c1cccc(CN2C(=N)NC(c3ccccc3)(c3ccccc3)C2=O)c1` [Example 23, 3-[(2-imino-5-oxo-4,4-diphenylimidazolidin-1-yl)methyl]-N-methyl-N-[2-(methylsulfonyl)-benzyl]benzamide] here?
Its IC50 is 12.9 nM.

How did the IC50 turn out when `CC(C)CC1(c2ccccc2)NC(=N)N(Cc2ccc(Cl)c(C(=O)NCc3ccc(C#N)cc3)c2)C1=O` (centres unmarked) [Example 71, 2-chloro-N-(4-cyanobenzyl)-5-{[2-imino-4-(2-methylpropyl)-5-oxo-4-phenylimidazolidin-1-yl]methyl}benzamide] was run?
The IC50 was 8.19 nM.

For `CC(C)CCC1(c2ccccc2)NC(=N)N(Cc2cccc(C(=O)N(C)Cc3ccc(Cl)cc3)c2)C1=O` (centres unmarked) [Example 26, N-(4-chlorobenzyl)-3-{[2-imino-4-(3-methylbutyl)-5-oxo-4-phenylimidazolidin-1-yl]methyl}-N-methylbenzamide], which IC50 is on record?
Its IC50 is 13.9 nM.

With `CC(C)CCC1(c2ccccc2)NC(=N)N(Cc2ccc(C(F)(F)F)c(C(=O)NCc3ncccn3)c2)C1=O` (centres unmarked) [Example 8, 5-{[2-imino-4-(3-methylbutyl)-5-oxo-4-phenylimidazolidin-1-yl]methyl}-N-(pyrimidin-2-ylmethyl)-2-(trifluoromethyl)benzamide] as the compound, how does the IC50 read?
The IC50 was 54.6 nM.

For `Cc1cc(CN2C(=N)NC(c3ccc(F)cc3)(c3ccc(F)cc3)C2=O)cc(C(=O)N(C)Cc2ccc(F)cc2)n1` [Example 93, 4-{[4,4-bis(4-fluorophenyl)-2-imino-5-oxoimidazolidin-1-yl]methyl}-N-(4-fluorobenzyl)-N,6-dimethylpyridine-2-carboxamide], which IC50 is on record?
Its IC50 is 32.6 nM.

`CN(Cc1ccc(Cl)cc1)C(=O)c1cccc(CN2C(=N)NC(c3ccccc3)(c3ccccc3)C2=O)c1` [Example 36, N-(4-chlorobenzyl)-3-[(2-imino-5-oxo-4,4-diphenylimidazolidin-1-yl)methyl]-N-methylbenzamide] was tested. Which IC50 did it give?
The IC50 was 21.7 nM.

`CN(Cc1ccc(Cl)cc1)C(=O)c1cncc(CN2C(=N)NC(c3ccc(F)cc3)(c3ccc(F)cc3)C2=O)c1` [Example 81, 5-{[4,4-bis(4-fluorophenyl)-2-imino-5-oxoimidazolidin-1-yl]methyl}-N-(4-chlorobenzyl)-N-methylpyridine-3-carboxamide] was tested. Which IC50 did it give?
The IC50 was 22.7 nM.

`CC(C)CCC1(c2ccccc2)NC(=N)N(Cc2cncc(C(=O)N(C)Cc3ccc(C#N)cc3)c2)C1=O` (centres unmarked) [Example 83, N-(4-cyanobenzyl)-5-{[2-imino-4-(3-methylbutyl)-5-oxo-4-phenylimidazolidin-1-yl]methyl}-N-methylpyridine-3-carboxamide] was tested. Which IC50 did it give?
The IC50 was 50.4 nM.

With `CC(C)CC1(c2cccc(F)c2)NC(=N)N(Cc2cccc(C(=O)N(C)Cc3ccc(C#N)cc3)c2)C1=O` (centres unmarked) [Example 69, N-(4-cyanobenzyl)-3-{[4-(3-fluorophenyl)-2-imino-4-(2-methylpropyl)-5-oxoimidazolidin-1-yl]methyl}-N-methylbenzamide] as the compound, how does the IC50 read?
The IC50 was 97.1 nM.

For `CC(C)CCC1(c2cccc(-c3cccnc3)c2)NC(=N)N(Cc2cccc(C(=O)N(C)Cc3ccc(C#N)cc3)c2)C1=O` (centres unmarked) [Example 31, N-(4-cyanobenzyl)-3-{[2-imino-4-(3-methylbutyl)-5-oxo-4-(3-pyridin-3-ylphenyl)imidazolidin-1-yl]methyl}-N-methylbenzamide], which IC50 is on record?
The IC50 was 19 nM.

`CN(Cc1ccc(Cl)cc1)C(=O)c1cccc(CN2C(=N)NC(c3ccc(F)cc3)(c3cccc(Br)c3)C2=O)c1` (centres unmarked) [Example 40, 3-{[4-(3-bromophenyl)-4-(4-fluorophenyl)-2-imino-5-oxoimidazolidin-1-yl]methyl}-N-(4-chlorobenzyl)-N-methylbenzamide] was tested. Which IC50 did it give?
Its IC50 is 25.9 nM.

For `CC(C)CC1(c2ccccc2)NC(=N)N(Cc2cncc(C(=O)N(C)Cc3ccc(C#N)cc3)c2)C1=O` (centres unmarked) [Example 84, N-(4-cyanobenzyl)-5-{[2-imino-4-(2-methylpropyl)-5-oxo-4-phenylimidazolidin-1-yl]methyl}-N-methylpyridine-3-carboxamide], which IC50 is on record?
The IC50 was 93 nM.

With `CC(C)CC1(c2ccccc2)NC(=N)N(Cc2ccc(C(F)(F)F)c(C(=O)NCc3ccc(C#N)cc3)c2)C1=O` (centres unmarked) [Example 1, N-(4-cyanobenzyl)-5-{[2-imino-4-(2-methylpropyl)-5-oxo-4-phenylimidazolidin-1-yl]methyl}-2-(trifluoromethyl)benzamide] as the compound, how does the IC50 read?
The IC50 was 16 nM.

Which IC50 does the source give for `CN(Cc1ccc(Cl)cn1)C(=O)c1cncc(CN2C(=N)NC(c3ccc(F)cc3)(c3ccc(F)cc3)C2=O)c1` [Example 82, 5-{[4,4-bis(4-fluorophenyl)-2-imino-5-oxoimidazolidin-1-yl]methyl}-N-[(5-chloropyridin-2-yl)methyl]-N-methylpyridine-3-carboxamide] here?
The IC50 was 43.7 nM.

How did the IC50 turn out when `C[C@H](c1ccccc1)N(C)C(=O)c1cccc(CN2C(=N)NC(c3ccccc3)(c3ccccc3)C2=O)c1` [Example 48, 3-[(2-imino-5-oxo-4,4-diphenylimidazolidin-1-yl)methyl]-N-methyl-N-[(1R)-1-phenylethyl]benzamide] was run?
The IC50 was 39.6 nM.

`CC(C)CC1(c2ccc(F)cc2)NC(=N)N(Cc2cccc(C(=O)N(C)Cc3ccc(Cl)cc3)c2)C1=O` (centres unmarked) [Example 16, N-(4-chlorobenzyl)-3-{[4-(4-fluorophenyl)-2-imino-4-(2-methylpropyl)-5-oxoimidazolidin-1-yl]methyl}-N-methylbenzamide] was tested. Which IC50 did it give?
The IC50 was 9.12 nM.

For `CN(Cc1ccc(C#N)cc1)C(=O)c1ccnc(CN2C(=N)NC(c3ccccc3)(c3ccccc3)C2=O)c1` [Example 85, N-(4-cyanobenzyl)-2-[(2-imino-5-oxo-4,4-diphenylimidazolidin-1-yl)methyl]-N-methylpyridine-4-carboxamide], which IC50 is on record?
Its IC50 is 5.4 nM.

For `C[C@H](c1ccc(F)cc1)N(C)C(=O)c1cncc(CN2C(=N)NC(c3ccc(F)cc3)(c3ccc(F)cc3)C2=O)c1` [Example 79, 5-{[4,4-bis(4-fluorophenyl)-2-imino-5-oxoimidazolidin-1-yl]methyl}-N-[(1R)-1-(4-fluorophenyl)ethyl]-N-methylpyridine-3-carboxamide], which IC50 is on record?
Its IC50 is 13.7 nM.

How did the IC50 turn out when `CN(Cc1ccc(C#N)cc1)C(=O)c1cccc(CN2C(=N)NC(c3ccc(F)cc3)(c3ccc(F)cc3)C2=O)c1` [Example 13, 3-{[4,4-bis(4-fluorophenyl)-2-imino-5-oxoimidazolidin-1-yl]methyl}-N-(4-cyanobenzyl)-N-methylbenzamide] was run?
Its IC50 is 6.69 nM.

Reference: patent US20200261421A1, “HETEROCYCLIC COMPOUNDS AS HIV PROTEASE INHIBITORS” (Merck Sharp & Dohme Corp., priority 2016, published 2020)
